Data from PubChem BioAssay (NCI).
Values joined by “and” are separate entries in the source; they are usually repeats but may differ in a detail not shown here. Identical values can stand only once.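 How tested: cells in 96-well plates exposed to compound for 48 hours at five concentrations. GI50: concentration for 50% inhibition of growth. TGI: total growth inhibition.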

Assays:
Experiment in all cases: NCI tumour cell line growth inhibition, 48 h
SW-620 colon = system: SW-620 colon
NCI-H460 lung = system: NCI-H460 lung
RXF 393 renal = system: RXF 393 renal
CCRF-CEM leukemia = system: CCRF-CEM leukemia
CAKI-1 renal = system: CAKI-1 renal
MOLT-4 leukemia = system: MOLT-4 leukemia
DU-145 prostate = system: DU-145 prostate
MDA-MB-231 breast = system: MDA-MB-231 breast
SK-OV-3 ovarian = system: SK-OV-3 ovarian
SR leukemia = system: SR leukemia

Row | Structure (SMILES) | GI50 (SW-620 colon) [µM] | TGI (SW-620 colon) [µM] | GI50 (NCI-H460 lung) [µM] | TGI (NCI-H460 lung) [µM] | GI50 (RXF 393 renal) | TGI (RXF 393 renal) [µM] | GI50 (CCRF-CEM leukemia) [µM] | TGI (CCRF-CEM leukemia) [µM] | GI50 (CAKI-1 renal) [µM] | TGI (CAKI-1 renal) [µM] | GI50 (MOLT-4 leukemia) [µM] | GI50 (DU-145 prostate) [µM] | TGI (MDA-MB-231 breast) | TGI (SK-OV-3 ovarian) [µM] | TGI (SR leukemia) [µM] | TGI (MOLT-4 leukemia) [µM] | TGI (DU-145 prostate) [µM] | GI50 (MDA-MB-231 breast) [µM] | GI50 (SK-OV-3 ovarian) [µM] | GI50 (SR leukemia)
1 | COc1cccc(-c2cc(=O)c3cc(OC)ccc3[nH]2)c1 | 0.0445 | > 100 | 0.0823 | > 100 | 0.0144 µM | 0.224 | 0.0281 | 0.248 | 0.0319 | > 100 | 0.0411 | 0.186 | 4.53 µM and 21.6 µM | 41.5 | 0.664 | – | – | – | – | –
2 | CN(C)CCCOc1ccc(-c2ccc3ncc4c(c3c2)n(C2CCOCC2)c(=O)n4C)cn1 | 2.81 | 21.1 | 0.94 | 15.5 | 0.838 µM | 4.85 | 3.02 | 22.7 | – | – | 1.51 | 2.37 | 11.7 µM | 4.19 | 15.6 | 14.4 | 17.2 | 1.31 | 0.514 | 3.01 µM
3 | COc1cc(/C=C2\C(=O)Nc3cc(C)c(O)cc32)cc(OC)c1OC | 4.08 | 15.9 | 3.2 | 11.7 | 3.46 µM | 13.4 | 2.89 | 18.3 | 2.98 | 9.66 | 3.32 | 3.67 | 23.1 µM | 54.1 | 5.84 | 16.7 | 17.1 | 3.25 | 7.34 | 0.857 µM
4 | Cn1cc(C2=C(c3cn(CCCCN)c4ccccc34)C(=O)NC2=O)c2ccccc21 | > 25 | > 25 | > 25 | > 25 | > 25 µM | > 25 | > 25 | > 25 | > 25 | > 25 | > 25 | > 25 | > 25 µM | > 25 | > 25 | > 25 | > 25 | > 25 | > 25 | > 25 µM
5 | Cc1nn(-c2nc3ccccc3[nH]2)c(N)c1-c1ccc(Cl)cc1 | 4.58 | > 100 | 2.96 | > 100 | 4.26 µM | 46.4 | 2.92 | > 100 | 8.82 | > 100 | 3.54 | 6.86 | > 100 µM | > 100 | > 100 | > 100 | > 100 | 4.5 | 7.4 | 3.63 µM
6 | CC(C)(C)C(=O)c1c(C(F)(F)F)n([O-])c2ccccc2[n+]1=O | 0.467 | 2 | 0.439 | 1.52 | 0.868 µM | 2.28 | 0.577 | 2.34 | 0.282 | 0.811 | 0.157 | 0.356 | 2.3 µM | 3.07 | 0.209 | 0.853 | 0.892 | 0.56 | 1.67 | –
7 | COc1ccc(S(=O)(=O)N2CC(C)(C)CN(S(=O)(=O)c3ccc(OC)cc3)C2C(=O)NO)cc1 | > 20 | > 20 | > 20 | > 20 | > 14.2 µM | > 20 | 1.29 | > 16.6 | > 14.1 | > 20 | > 11 | > 20 | > 20 µM | > 20 | > 20 | > 20 | > 20 | > 16.2 | > 20 | 13.6 µM
8 | CNC(=O)c1ccc(N2CCN(Cc3ccc4nc(C)c(=O)[nH]c4c3F)CC2)c(F)n1 | > 100 | > 100 | 73.8 | > 100 | 13.1 µM | 62.5 | > 100 | > 100 | 49.4 | > 100 | > 100 | > 100 | > 100 µM | > 100 | > 100 | > 100 | > 100 | 39.5 | > 100 | 63.1 µM
9 | CCCC(=O)NC1=C(Cl)C(=O)c2ccccc2C1=O | – | 6.36 | – | 20 | – | 6.08 | – | > 100 | – | 10.1 | – | – | 17.4 µM | 27.1 | 6.31 | 7.2 | 20.9 | – | – | –
10 | O=C(CC(c1ccccc1)c1c(O)c2ccccc2oc1=O)c1ccccc1 (stereo not drawn) | – | > 100 | – | > 100 | – | > 100 | – | > 100 | – | 46.4 | – | – | > 100 µM | > 100 | > 100 | > 100 | > 100 | – | – | –
11 | Nc1ccc(C2=NN(c3ccccc3)C(c3ccc(Cl)cc3)C2)cc1 (stereo not drawn) | 1.67 | 3.35 | 3.94 | 16.3 | 1.55 µM | 3.12 | 2.3 | 6.17 | 3.21 | 14 | 2.23 | 3.54 | 6.98 µM | 29.9 | 4.27 | 6.61 | 11.3 | 2.38 | 9.09 | 1.71 µM
12 | COc1cc(-c2cc3ncccc3c3nc(N)c4cccnc4c23)cc(OC)c1OC | 0.468 | > 100 | 0.408 | 16.8 | 0.742 µM | 6.48 | 0.481 | 30.2 | 0.4 | 22.6 | 0.604 | 0.487 | > 100 µM | 72.5 | 4.97 | 8.05 | 3.13 | 1.25 | 0.538 | 0.124 µM
13 | C=C1C(=O)O[C@@H]2C[C@@H](C)[C@@H]3C=CC(=O)[C@@]3(C)[C@@H](OC(=O)CC(=O)O[C@H]3[C@@H]4C(=C)C(=O)O[C@@H]4C[C@@H](C)[C@@H]4C=CC(=O)[C@]43C)[C@H]12 | – | 0.0326 | – | 0.361 | – | 0.0258 | – | 0.0376 | – | 0.111 | – | – | 1.32 µM | 0.785 | 0.0548 | < 0.0304 | 12.9 | – | – | –
14 | O=c1c(Oc2ccc(F)cc2F)cc2cnc(NC3CCOCC3)nc2n1CCCO | > 25 | > 25 | > 25 | > 25 | > 25 µM | > 25 | > 25 | > 25 | > 25 | > 25 | > 25 | > 25 | > 25 µM | > 25 | > 25 | > 25 | > 25 | > 25 | > 25 | > 25 µM
15 | COc1cc(C#Cc2ccc(=O)oc2C#Cc2ccccc2)cc(OC)c1OC | 2.04 | 4.28 | 3.94 | 16.4 | 2.21 µM | 4.34 | 4.02 | > 100 | 2.12 | 4.26 | 3.43 | 3.12 | 7.87 µM | > 74.5 | > 31.3 | > 45.1 | 10.7 | 2.84 | 15.2 | 1.84 µM
16 | CC(=O)O[C@H]1CC[C@@]2(C)C(=CC[C@H]3[C@@H]4CC[C@H](c5cc(C(F)(F)F)n(C(C)=O)n5)[C@@]4(C)CC[C@@H]32)C1 | – | 49 | – | 12.6 | – | 17.8 | – | 9.04 | – | 24.5 | – | – | 14.8 µM | 25.4 | 14.8 | 8.39 | 23.5 | – | – | –
17 | S=C(Nc1ccc(Br)cc1)Nc1ccc(Br)cc1 | 4.43 | > 100 | 3.69 | > 100 | > 100 µM | > 100 | 6.19 | > 100 | 4 | > 100 | 6.59 | 6.41 | > 100 µM | > 100 | > 100 | > 100 | > 100 | 25.5 | > 100 | 6.96 µM
18 | COc1ccc(C(=O)/C=C/c2ccc(C)cc2)cc1OC | 10.2 | 21.8 | 7.77 | 20.5 | 12.2 µM | 26.4 | 25.1 | 61.2 | 18.1 | 52.8 | 16.6 | 3.2 | 33.1 µM | 27.4 | 6.83 | 47.2 | 14.4 | 14.3 | 14 | 2.4 µM
19 | COC(=O)CCc1c[nH]c2ccc(N(CCCl)CCCl)cc12 | 3.41 | 37 | 0.322 | 12.9 | 1.64 µM | 4.19 | 0.6 | > 28.6 | 0.375 | > 28.4 | 0.826 | 2.27 | > 92.4 µM | 33.5 | > 100 | > 100 | > 100 | 20.1 | 1.93 | 0.416 µM
20 | CN[C@H]1C=C[C@@H]2/C=C(C)/C=C/[C@@H](C)[C@H]([C@H](C)[C@H](O)[C@@H](C)NC(C)=O)OC(=O)/C=C/C=C(C)\C=C\[C@]2(C)C1 | 0.00655 | > 49 | 0.0107 | > 49 | < 0.001 µM and 0.00674 µM | 28.7 | 6.16 | > 49 | – | – | 16.6 | – | 9.97 µM | – | > 49 | > 49 | > 49 | 0.0049 | < 0.001 | < 0.001 µM and 0.0049 µM
21 | CCN(Cc1cccc(F)c1)c1ccc(CO)c(Cl)c1 | 0.808 | > 100 | 0.306 | 18 | 5.28 µM | 27.8 | 24 | > 80.7 | 0.907 | > 36.3 | 25.2 | 26.9 | > 55.3 µM | 36.3 | > 70.3 | > 74.5 | > 100 | 19 | 6.68 | 27.3 µM
22 | FC(F)(F)c1nc2nc(Cl)c(Cl)nc2n1CCCN1CCOCC1 | – | > 100 | – | > 100 | – | 68.1 | – | > 100 | – | 14.7 | – | – | > 100 µM | > 100 | 33.9 | 48.6 | 63.2 | – | – | –
23 | CO[C@H]1/C=C/O[C@@]2(C)Oc3c(C)c(O)c4c(c3C2=O)C(=O)C(/C=N/N(c2ccccc2)c2ccccc2)=C(NC(=O)/C(C)=C\C=C\[C@H](C)[C@H](O)[C@@H](C)[C@@H](O)[C@@H](C)[C@H](OC(C)=O)[C@@H]1C)C4=O | 1.83 | 3.61 | 1.77 | 3.44 | – | – | 1.83 | 4.84 | 1.72 | 3.38 | 1.85 | 1.93 | 3.35 µM | 3.28 | 5.77 | 6.07 | 3.51 | 1.7 | 1.81 | 2.43 µM
24 | CCc1cccc(C)c1NC(=O)c1sc2nc3c(cc2c1N)CCCCC3 | 3.76 | > 100 | 3.52 | 26.6 | 1.6 µM | 6.4 | 2.68 | > 100 | – | – | 4.56 | 3.28 | > 100 µM | > 100 | 54 | > 100 | > 100 | 4.35 | 5.24 | 2.27 µM
25 | C=C(c1ccc2nc(NC(=O)OC)[nH]c2c1)c1cccs1 | – | > 100 | – | > 100 | – | > 100 | – | – | – | 8.27 | – | – | > 100 µM | > 45.1 | 1.11 | – | > 100 | – | – | –
26 | C=C1C(O)C2C(=C(CCc3ccccc3)C13CC3)C(=O)C(C)(CO)C2O (stereo not drawn) | > 100 | > 100 | > 100 | > 100 | > 100 µM | > 100 | > 100 | > 100 | > 100 | > 100 | 64.1 | > 100 | > 100 µM | – | > 100 | > 100 | > 100 | > 100 | – | 38.6 µM
27 | CC[N+](CC)=c1sc2c(s1)C(c1ccc(Cl)cc1)Oc1ccc(Cl)cc1-2 (stereo not drawn) | 1.08 | 2.72 | 0.503 | 1.89 | 2.26 µM | 4.86 | 0.665 | 6.35 | – | – | 2.16 | 3.32 | 4.35 µM | 8.72 | 7.15 | 6.41 | 10.6 | 1.93 | 2.51 | 2.68 µM
